The values that follow come from ChEMBL document CHEMBL5344416, “Phenothiazines as anti-cancer agents: SAR overview and synthetic strategies” (Eur J Med Chem, 2023).

In general, IC50 refers to the concentration needed to halve the response being measured. Broadly, the IC20 is the concentration needed for an effect of 20%. One may read the CC50 as the concentration at which the toxic effect on the cells reaches its halfway point.

One series concerns T47D. The experiment in a line: Cytotoxicity against human T47D cells assessed as reduction in cell viability after 48 hrs by MTT assay. Type of series: functional, cell-based.
The next series deals with MDA-MB-468. The series can be described thus: Cytotoxicity against human MDA-MB-468 cells assessed as cell viability measured after 3 days by Cell Titer Blue assay. The format is functional, cell-based. To be noted: MDA-MB-468, 72 h. On the technique in general: The colour change of resazurin is a common sign of viable cells or microbes.
The next series relates to SK-BR-3. The experiment in a line: Cytotoxicity against human SK-BR-3 cells assessed as cell growth inhibition incubated for 48 hrs by WST-1 assay. Type of series: functional, cell-based. To be noted: SK-BR-3, 48 h.
Series [1] has as its system MDA-MB-231. The experiment in a line: Cytotoxicity against human MDA-MB-231 cells assessed as reduction in cell viability incubated for 24 hrs by MTT assay. Type of series: functional, cell-based. To be noted: MDA-MB-231, 24 h.
Series [2] relates to MCF7. The experiment in a line: Cytotoxicity against human MCF7 cells assessed as reduction in cell growth incubated for 96 hrs by MTT assay. The format is functional, cell-based. To be noted: MCF7, 96 h. (In general: Formazan colour is commonly taken as a measure of viable cells.)
Series [3] in a line: Cytotoxicity in human MCF-10A cells assessed as reduction in cell viability incubated for 72 hrs by MTT assay. Type of series: toxicity, cell-based.
The subject of series [4] is SNB-19. The experiment in a line: Antiproliferative activity against human SNB-19 cells assessed as reduction in cell proliferation incubated for 72 hrs by WST-1 assay. The note with it: SNB-19, 72 h. The format is functional, cell-based.
Series [5] relates to MDA-MB-231. The series can be described thus: Antiproliferative activity against human MDA-MB-231 cells assessed as reduction in cell proliferation incubated for 72 hrs by WST-1 assay. The format is functional, cell-based. The note with it: MDA-MB-231, 72 h.
Series [6] concerns TC-32. The experiment in a line: Antiproliferative activity against human TC-32 cells assessed as reduction in cell proliferation incubated for 72 hrs by WST-1 assay. The format is functional, cell-based. The note with it: TC-32, 72 h.
In series [7] the test system is LoVo. The series can be described thus: Cytotoxicity against human LoVo cells assessed as reduction in cell viability incubated for 72 hrs by MTT assay. The format is functional.
A short description of series [8]: Antiproliferative activity against human Lovo/DX cells assessed as reduction in cell viability. Type of series: functional, cell-based.
Series [9] concerns LoVo. The experiment in a line: Antiproliferative activity against human LoVo cells assessed as reduction in cell viability incubated for 48 hrs by MTT assay. Type of series: functional, cell-based.
The nature of series [10]: Cytotoxicity against human Lovo/DX cells assessed as reduction in cell viability incubated for 72 hrs by MTT assay. The format is functional.
The test system of a further series is MRC5. The experiment in a line: Cytotoxicity against human MRC5 cells assessed as reduction in cell growth incubated for 48 hrs by CCK8 assay. Type of series: functional, cell-based. The note with it: MRC5, 48 h.
The subject of series [11] is SW1990. The series can be described thus: Cytotoxicity against human SW1990 cells measured after 8 days. The format is functional, cell-based. To be noted: SW1990, 192 h.
Series [12] relates to ASPC1. The series can be described thus: Cytotoxicity against human ASPC1 cells assessed as reduction in cell viability incubated for 24 hrs by MTT assay. Type of series: functional, cell-based. To be noted: ASPC1, 24 h.
A further series relates to BXPC-3. The experiment in a line: Cytotoxicity against human BXPC-3 cells assessed as reduction in cell viability incubated for 72 hrs by MTT assay. Type of series: functional, cell-based. The note with it: BXPC-3, 72 h.
A further series concerns PANC-1. The experiment in a line: Cytotoxicity against human PANC-1 cells assessed as cell growth inhibition incubated for 48 hrs by WST-1 assay. The format is functional, cell-based. To be noted: PANC-1, 48 h.
Series [13] concerns TC-32. The experiment in a line: Anticancer activity against human TC-32 cells assessed as reduction in cell growth incubated for 48 hrs by SRB assay. Type of series: functional, cell-based. To be noted: TC-32, 48 h. A general note: In SRB staining, fixed cells bind dye roughly in proportion to their protein.
The subject of series [14] is SNB-19. The experiment in a line: Anticancer activity against human SNB-19 cells assessed as reduction in cell growth incubated for 48 hrs by SRB assay. The format is functional, cell-based. To be noted: SNB-19, 48 h.
In series [15] the test system is MDA-MB-231. The experiment in a line: Anticancer activity against human MDA-MB-231 cells assessed as reduction in cell viability measured after 72 hrs by MTT assay. The format is functional, cell-based. The note with it: MDA-MB-231, 72 h.
The test system of the next series is HL-60. The experiment in a line: Antiproliferative activity against human HL-60 cells assessed as cell growth inhibition measured after 24 hrs by MTT assay. Type of series: functional, cell-based. To be noted: HL-60, 24 h.
The nature of series [16]: Antiproliferative activity against human PBMC cells assessed as reduction in cell viability measured after 24 hrs by MTT assay. Type of series: functional, cell-based.
The next series deals with THP-1. The series can be described thus: Antiproliferative activity against human THP-1 cells assessed as cell growth inhibition measured after 24 hrs by MTT assay. The format is functional, cell-based. To be noted: THP-1, 24 h.
In series [17] the test system is MCF7. The experiment in a line: Antitumor activity against human MCF7 cells assessed as inhibition of cell growth at 1000 ug measured after 48 hrs by spectrophotometric analysis relative to control. Type of series: functional. More on the design: scale not given: the % may be the effect or the level left. The note with it: dose 1000 µg.
In series [18] the test system is MCF7. The series can be described thus: Antitumor activity against human MCF7 cells assessed as increase in LDH level at 1000 ug relative to control. To be noted: dose 1000 µg. Type of series: functional.
Series [19] deals with CT26. The experiment in a line: Antitumor activity against mouse CT26 cells assessed as reduction in cell viability incubated for 4 hrs by MTT assay. The format is functional, cell-based. To be noted: CT26, 4 h.
Series [20] concerns CT26. The experiment in a line: Antitumor activity against mouse CT26 cells assessed as tumor growth inhibition incubated for 4 hrs by MTT assay relative to control. The format is functional. More on the design: scale not given: the % may be the effect or the level left.
Series [21] has as its system SW1990. The experiment in a line: Antiproliferative activity against human SW1990 cells assessed as reduction in cell viability. The format is functional, cell-based.
For series [22], the system named is ASPC1. The series can be described thus: Antiproliferative activity against human AsPC1 cells assessed as inhibition of cell proliferation incubated for 6 days by CCK8 assay. Type of series: functional, cell-based. The note with it: ASPC1, 144 h.
The subject of a further series is RAW264.7. The experiment in a line: Cytotoxicity against mouse RAW264.7 cells assessed as reduction in cell viability incubated for 72 hrs. The note with it: RAW264.7, 72 h. The format is functional, cell-based.
Another series deals with CWR22R. The series can be described thus: Antiproliferative activity against human 22Rv1 cells assessed as cell viability incubated for 96 hrs by Cell-Titer Glo assay. The format is functional, cell-based. The note with it: 22Rv1, 96 h.
Series [23] has as its system MCF7. The series can be described thus: Cytotoxicity against human MCF7 cells assessed as cell growth inhibition measured after 48 hrs by MTT assay. The format is functional, cell-based. To be noted: MCF7, 48 h.
In another series the test system is HepG2. The experiment in a line: Cytotoxicity against human HepG2 cells assessed as reduction in cell viability incubated for 48 hrs by MTT assay. To be noted: HepG2, 48 h. Type of series: functional, cell-based.
The subject of the next series is HSC-2. The experiment in a line: Cytotoxicity against human HSC-2 cells assessed as reduction in cell viability measured after 48 hrs by MTT assay. The format is functional.
For a further series, the system named is HSC-4. The series can be described thus: Cytotoxicity against human HSC-4 cells assessed as reduction in cell viability incubated for 48 hrs by MTT assay. The format is functional.
The test system of the next series is HSC-3. The series can be described thus: Cytotoxicity against human HSC-3 cells assessed as reduction in cell viability incubated for 48 hrs by MTT assay. The format is functional.

Each structure is given as a SMILES string. A value given as a limit tells only on which side of the number the result lay.

Regarding `CCN1c2ccc(-c3ccccc3)cc2Sc2cc(-c3nnc4ccccn34)ccc21`, the IC50 in the series with T47D came out at 11.7 µM; in the series with MDA-MB-468 it was 9.7 µM; in the series on SK-BR-3, 31.5 µM; in the series with MDA-MB-231 [1], 19.4 µM; in the series with MCF7 [2], 6.2 µM. Also, in series [3], the IC50 at 72 h is 13.4 µM.

Consider `CCN(CC)CCN1c2ncccc2Sc2cccnc21`, for which the IC50 in the series on SNB-19 [4] worked out at 0.33 µM; with MDA-MB-231 [5] it was 2.13 µM; with TC-32 [6], 14.4 µM.

Consider `OCCOCCN1CCN(CC(O)CN2c3ccccc3Sc3ccc(C(F)(F)F)cc32)CC1` (configuration not stated), for which the IC20 in the series with LoVo [7] turned out to be 6 µM; in [10], 4 µM. Moreover, the IC50 in series [8] came to 20 µM; in the series with LoVo [9], 50 µM.

Regarding `CN(CCO)CC(O)CN1c2ccccc2Sc2ccc(C(F)(F)F)cc21` (configuration not stated), the results for the IC20 (in the series with LoVo [7]; in series [10]) were 12 µM and 8 µM, respectively. Besides, the IC50 in [8] amounted to 42 µM; in the series with LoVo [9], 50 µM.

Take `CC1=C(C(=O)Nc2ccc(Cl)c(Cl)c2)C(c2ccc3c(c2)Sc2ccccc2N3)C(C(=O)Nc2ccc(Cl)c(Cl)c2)=C(C)N1`: the IC50 in the series on MRC5 came out at 70.5 µM; in the series with SW1990 [11], 6.31 µM; in the series on ASPC1 [12], 6.31 µM; in the series on BXPC-3, 6.31 µM; in the series with PANC-1 it was 6.31 µM.

Consider `C(#CCN1c2ccncc2Sc2ncccc21)CN1CCN(c2ccccc2)CC1`, for which the IC50 is 4.57 µM in the series on TC-32 [13], 0.45 µM in the series on SNB-19 [14] and 0.74 µM in the series on MDA-MB-231 [15].

For the compound `CCCCCCCCCCc1nc2cc3c(cc2s1)N(C)c1ccccc1S3`, the IC50 in the series with HL-60 is 67.3 µM; in series [16] it was > 2000 µM; with THP-1, 21.6 µM.

As for `CN1c2ccccc2Sc2cc(/C=C/C(=O)c3ccccc3)ccc21`, the Activity is 21% with MCF7 [17] and 64% in the series with MCF7 [18].

As for `CC(=O)c1ccc(N2CCN(CC(O)CN3c4ccccc4Sc4ccc(C(F)(F)F)cc43)CC2)cc1` (configuration not stated), the IC20 is 3 µM with LoVo [7] and 4 µM in series [10]. The IC50 (in series [8]; in the series on LoVo [9]) was 100 µM each time.

As for `COCCOCCOCCOCCOCCOCCOCCOCCOCCOCCOCCOCCN1c2ccccc2Sc2ccccc21`, the IC50 with CT26 [19] was found to be 344 µM. Besides, in the series with CT26 [20], the Activity was found to be 92%.

For the compound `CCN1c2ccccc2Sc2cc(C3NC(=O)NC(C)=C3C(=O)Nc3ccccc3)ccc21` (configuration not stated), the IC50 with MRC5 turned out to be 83.7 µM; with SW1990 [21] it was 22.8 µM; in the series on ASPC1 [22], 15.7 µM.

On to `O=C(Nc1ccc(OCCCN2CCNCC2)cc1)N1c2ccccc2Sc2ccccc21`, for which the IC50 in the series with RAW264.7 turned out to be 60.1 µM; with CWR22R, 13.5 µM.

Regarding `CCCCCCCCCCCCN1c2ccccc2Sc2ccc(C(=O)/C=C/c3ccc(Cl)cc3)cc21`, the IC50 with MCF7 [23] was 13.8 µM; with HepG2, 7.14 µM.

For the compound `COc1cc(OC)c(OC)cc1/C=C/C(=O)c1ccc2c(c1)Nc1ccccc1S2`, the CC50 in the series on HSC-2 was 4.9 µM; in the series on HSC-4, 8 µM; with HSC-3, 311 µM.

On to `CCCCCCCCCCCCN1c2ccccc2Sc2ccc(C(=O)/C=C/c3cc(OC)c(OC)c(OC)c3)cc21`, for which the results for the IC50 in the series on MCF7 [23] and with HepG2 were 12 µM and 7.6 µM, respectively.

Consider `OCCN1CCN(CCCN2c3ccccc3Sc3ccc(C(F)(F)F)cc32)CC1` [FLUPHENAZINE], for which the IC20 (with LoVo [7]; in [10]) was 22 µM throughout. The IC50 (in series [8]; in the series on LoVo [9]) was 80 µM throughout.
